Data on 2 compounds can be found in patent US20240366624A1, “METHODS AND COMPOSITIONS FOR TREATING THROMBOTIC DISEASE” (Washington University, priority 2023, published 2024).

The subject of one assay is Ero1α-null platelets. As to the kind of experiment: Platelet aggregation, Ero1α-null platelets. The assay is classed as cell-based, mouse. How it is done:
FIG. 7(A-L) is an exemplary embodiment of crucial intracellular ERO1α (endoplasmic reticulum oxidoreductase 1a) for platelet activation, aggregation, and thrombus formation in accordance with the present disclosure. FIG. 7A: Ex vivo platelet thrombus formation in a flow chamber assay. Adherent and aggregated platelets were stained with rhodamine-conjugated phalloidin and imaged by confocal microscopy. Representative images (bar, 10 μm). Surface coverage and thrombus volume were measured (mean±SD, n=4). FIG. 7(B-E): Aggregation and ATP secretion of wild type (WT) and Ero1α-null platelets were induced by 0.025 U/mL thrombin, 0.05 μg/mL CRP (collagen-related peptide), 0.5 μM A23187, or 2.5 μM ADP. Platelet aggregation (i) and ATP secretion (ii). FIG. 7F: Ero1α-null platelets were pretreated with 50 μg/mL wtERO1α or wtPDI and then with 0.025 U/mL thrombin. Quantification graphs of aggregation and ATP secretion are presented as the mean±SD (n=3-4). FIG. 7G and FIG. 7H: P-selectin exposure and αIIbβ3 integrin activation of WT and Ero1α-null platelets were analyzed by flow cytometry. The data are presented as the geometric mean fluorescence intensity (MFI) value (mean±SD, n=3-4). FIG. 7I: WT and Ero1α-null platelets were treated with or without 0.025 U/mL thrombin for 1 minute in an aggregometer. The lysates were immunoprecipitated with control IgG or anti-β3 antibodies and subjected to immunoblotting with antibodies against talin1 or β3 and densitometric analysis (mean±SD, n=3). FIG. 7J: WT and Ero1α-null platelets were treated with or without 0.025 U/mL thrombin, followed by transmission electron microscopy. The original magnification was 34 800, and the extension was 313 000. Bar, 500 nm. FIG. 7K and FIG. 7L: Intravital microscopy was performed to determine the effect of 15E9 (1-3 μg/g body weight [BW]) and a blocking anti-PDI (protein disulfide isomerase) antibody (BD34, 3 μg/g BW) on platelet thrombus formation and fibrin generation at the site of laser-induced cremaster arteriolar injury (n=27-40 arterioles in 6 mice per group). The n indicates biological replicates. P values determined by unpaired Student t test (FIG. 7(A-E) and FIG. 7(G-1)), ANOVA and Dunnett test (FIG. 7F), or Mann-Whitney U test (FIG. 7K and FIG. 7L).
FIG. 9(A-C) is an exemplary embodiment of EN460 inhibiting thrombin-induced aggregation of mouse and human platelets in accordance with the present disclosure. […] P values determined by ANOVA and Dunnett's test (FIG. 9(A-B)) or Student's t-test (FIG. 9C).
FIG. 10(A-E) is an exemplary embodiment of 15E9 not affecting platelet activation and aggregation in accordance with the present disclosure. […] P values determined by unpaired Student's t-test (vs. mIgG1). […]

In a further assay the test system is mouse platelets. As to the kind of experiment: Ca2+ mobilization (FLIPR), mouse platelets. The assay is classed as cell-based. The procedure: FIG. 15 is an exemplary embodiment of EN460 affecting the basal level of cytosolic Ca2+ and inhibiting Ca2+ mobilization in accordance with the present disclosure. WT mouse platelets were pretreated with vehicle (0.1% DMSO) or 5-10 μM EN460, followed by measuring Ca2+ release and influx after stimulation with 2 μM A23187 and the addition of 1 mM CaCl2). The data represent the mean±SD (n=3). P values determined by ANOVA and Dunnett's test.
Ca^2+ mobilization was measured as described previously. WT control and Ero1α-null platelets (1×10^8/mL) were suspended in HEPES-Tyrode buffer, pH 7.4. Cells were incubated with a Ca^2+ dye (FLIPR Ca^2+5 assay kit; Molecular Devices) for 30 minutes at 37° C. in the dark, followed by stimulation with thrombin (0.1 U/mL), A23187 (2 μM) or thapsigargin (10-20 μM). After measuring Ca^2+ release, 1 mM CaCl2) was immediately added to assess Ca^2+ influx. In other experiments, Ca^2+ dye-labeled human and WT mouse platelets were incubated with a vehicle or an inhibitor for 10 minutes at 37° C. Cytosolic Ca^2+ levels were measured using a FlexStation3 microplate reader with an excitation wavelength of 485 nm and an emission wavelength of 525 nm. Ca^2+ mobilization was quantified by the area under the curve and expressed as a relative fluorescence unit.
On the technique in general: Calcium flux is commonly read through the fluorescence of an indicator in the cells.

“Also recorded” adds a separate entry of the source.

With `O=C(CSc1nc(O)cc(O)n1)N1c2ccccc2Sc2ccccc21` [B12-5], the Ero1α-null platelet aggregation entry in the assay with Ero1α-null platelets (10 μM / up to 10 μM) is reported as “without affecting; also recorded: did not show an additional effect”. Also, in the assay on mouse platelets (mouse platelets, thrombin or A23187), the “Ca2+ release and influx” value is listed as “dose dependently inhibited”.
Regarding `O=C(O)c1cc(N2N=C(C(F)(F)F)/C(=C/c3ccc(-c4ccccc4)o3)C2=O)ccc1Cl` [EN460], the figures for the Ero1α-null platelet aggregation result with Ero1α-null platelets (3 μM) and with Ero1α-null platelets (3 to 10 μM) were “abolished; also recorded: completely blocked” and “significantly inhibited”, respectively. Moreover, the “Ca2+ release and influx” value with mouse platelets (A23187 stimulation, 5-10 μM) is listed as “diminished”. For the same compound, in the assay with mouse platelets (concentration-dependent, 5-10 μM, 3 to 10 μM), the “basal level of cytosolic Ca2+” value is “increased”.
